Data on 16 compounds can be found in patent US10188634B2, “3-(3H-imidazo[4,5-C]pyridin-2-yl)-1 H-pyrazolo[4,3-B]pyridines and therapeutic uses thereof” (Samumed, LLC, priority 2015, dated 2019).

In general, inhibition refers to the share of the control response that was lost under treatment. As usually defined, the EC50 is the concentration needed to bring the measured effect to its halfway point. A low value points to a more potent agent.

Common to all, as to format: cell-based
Test [1] relates to Wnt activity (Sp5-Luc reporter, human Sp5 promoter with eight TCF/LEF binding sites) in SW480 colon carcinoma cells. Put plainly: Screening assay for Wnt activity: Sp5-Luc reporter gene assay in SW480 cells. To be noted: for inhibition at 10 µM: read-out: percent inhibition at 10 μM (given for EC50 of >10 μM); for EC50: 10-point dose-response starting from 10 μM, overnight incubation. The method in brief: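 SW480 cells stably carrying Sp5-Luc reporter (eight TCF/LEF sites) plated at 4,000/well in 1% FBS medium with compound (10-point 1:3 series from 10 μM, 0.1% DMSO) overnight at 37 °C. BrightGlo luminescence normalized to DMSO; EC50 by four-parameter fit, else % inhibition at 10 μM.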
(Reporter assays use an easily measured gene product as a stand-in for the process of interest.)

The next test deals with SW480 colon cancer cells. The test can be described thus: Cell viability assay (CellTiter-Blue) in SW480 colon cancer cells. To be noted: Homo sapiens, 96 h; for inhibition at 10 µM: four days, CellTiter-Blue, read-out: percent inhibition at 10 μM (given for EC50 of >10 μM); for EC50: four days incubation, CellTiter-Blue cell viability. The gist of the method:
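About 2×10^3 SW480 colon cancer cells per well were exposed to compound (8-point 1:3 dilutions, 10 μM to 0.004 μM) for four days at 37 °C. Viability was read by CellTiter-Blue resazurin reduction (~3 h, Ex 560/Em 590). EC50 from nonlinear regression; above 10 μM, % inhibition at 10 μM is reported.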
A general note: Resazurin is reduced to fluorescent resorufin, in cell work by metabolically active cells.

In another test the test system is IL-6 in THP-1 cells. Put plainly: Inhibition of IL-6 in LPS-stimulated THP-1 human monocyte cells (HTRF). To be noted: IL-6 HTRF; for EC50: 500 ng/mL LPS, 22 hours; for inhibition at 10 µM: LPS, read-out: percent inhibition in brackets (given for EC50 >10 μM). The method in brief: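 THP-1 cells, serum-reduced (1% FBS) for 24 h, were exposed to compound (1:3, 10-point series from 10 μM; 0.1% DMSO) for 2 h, then 500 ng/mL LPS for 22 h at 37° C. Secreted IL-6 measured by HTRF (665/620 ratio), normalised to DMSO; EC50 by four-parameter fit, else % inhibition at 10 μM.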
On the technique in general: In TR-FRET formats the signal depends on donor and acceptor labels being close together.

Consider `c1ccc(CNCc2cncc(-c3ccc4[nH]nc(-c5nc6c(-c7cccnc7)cncc6[nH]5)c4n3)c2)cc1` [Compound 108, N-Benzyl-1-(5-(3-(7-(pyridin-3-yl)-3H-imidazo[4,5-c]pyridin-2-yl)-1H-pyrazolo[4,3-b]pyridin-5-yl)pyridin-3-yl)methanamine], for which the inhibition at 10 µM in test [1] was determined as 5.3%; in the test with SW480 colon cancer cells, 0%. The EC50 in test [1] is above 10 µM; in the test on SW480 colon cancer cells it was above 10 µM; with IL-6 in THP-1 cells, 0.03 µM.

With `Cc1ccncc1-c1ccc2[nH]nc(-c3nc4c(-c5ccncc5)cncc4[nH]3)c2n1` [Compound 117, 5-(4-Methylpyridin-3-yl)-3-(7-(pyridin-4-yl)-3H-imidazo[4,5-c]pyridin-2-yl)-1H-pyrazolo[4,3-b]pyridine], the figures for the inhibition at 10 µM (in test [1]; in the test with SW480 colon cancer cells; in the test with IL-6 in THP-1 cells) were 23.1%, 2.8% and 43.5%, respectively. In addition, the EC50 (in test [1]; in the test with SW480 colon cancer cells; in the test with IL-6 in THP-1 cells) was above 10 µM each time.

`CCCC(=O)Nc1cncc(-c2ccc3[nH]nc(-c4nc5c(-c6ccncc6)cncc5[nH]4)c3n2)c1` [Compound 129, N-(5-(3-(7-(Pyridin-4-yl)-3H-imidazo[4,5-c]pyridin-2-yl)-1H-pyrazolo[4,3-b]pyridin-5-yl)pyridin-3-yl)butyramide]: the inhibition at 10 µM in test [1] came to 0%; with SW480 colon cancer cells it was 2.8%; in the test on IL-6 in THP-1 cells, 18.7%. Besides, the results for the EC50 (in test [1]; with SW480 colon cancer cells; with IL-6 in THP-1 cells) were above 10 µM, above 10 µM and above 1 µM, respectively.

Consider `c1cc(-c2ccc3[nH]nc(-c4nc5c(-c6ccncc6)cncc5[nH]4)c3n2)ccn1` [Compound 130, 5-(pyridin-4-yl)-3-(7-(pyridin-4-yl)-3H-imidazo[4,5-c]pyridin-2-yl)-1H-pyrazolo[4,3-b]pyridine], for which the inhibition at 10 µM in test [1] turned out to be 9.8%; in the test on SW480 colon cancer cells, 0%; with IL-6 in THP-1 cells, 29.3%. For the same compound, the EC50 (in test [1]; with SW480 colon cancer cells; in the test on IL-6 in THP-1 cells) was above 10 µM each time.

For `O=C(Nc1cncc(-c2ccc3[nH]nc(-c4nc5c(-c6ccncc6)cncc5[nH]4)c3n2)c1)C1CCCCC1` [Compound 135, N-(5-(3-(7-(pyridin-4-yl)-3H-imidazo[4,5-c]pyridin-2-yl)-1H-pyrazolo[4,3-b]pyridin-5-yl)pyridin-3-yl)cyclohexanecarboxamide], the values for the inhibition at 10 µM (in test [1]; in the test on SW480 colon cancer cells; with IL-6 in THP-1 cells) were 1.2%, 1.4% and 26.6%, respectively. For the same compound, the EC50 in test [1] is above 10 µM; with SW480 colon cancer cells, above 10 µM; with IL-6 in THP-1 cells, above 1 µM.

For `CCNCc1cncc(-c2ccc3[nH]nc(-c4nc5c(-c6ccccn6)cncc5[nH]4)c3n2)c1` [Compound 146, N-((5-(3-(7-(Pyridin-2-yl)-3H-imidazo[4,5-c]pyridin-2-yl)-1H-pyrazolo[4,3-b]pyridin-5-yl)pyridin-3-yl)methyl)ethanamine], the inhibition at 10 µM stood at 14.2% in test [1], 26.9% in the test on SW480 colon cancer cells and 20.1% in the test with IL-6 in THP-1 cells. The EC50 (in test [1]; in the test with SW480 colon cancer cells; in the test with IL-6 in THP-1 cells) was above 10 µM throughout.

As to `O=C(Nc1cncc(-c2ccc3[nH]nc(-c4nc5c(-c6ccccn6)cncc5[nH]4)c3n2)c1)c1ccccc1` [Compound 151, N-(5-(3-(7-(Pyridin-2-yl)-3H-imidazo[4,5-c]pyridin-2-yl)-1H-pyrazolo[4,3-b]pyridin-5-yl)pyridin-3-yl)benzamide], the inhibition at 10 µM in test [1] came out at 23.9%; in the test on SW480 colon cancer cells, 16.9%; in the test on IL-6 in THP-1 cells it was 20.3%. Further, the concentration for a half-maximal effect (EC50) (in test [1]; in the test on SW480 colon cancer cells; in the test on IL-6 in THP-1 cells) was above 10 µM each time.

With `CCCCC(=O)Nc1cncc(-c2ccc3[nH]nc(-c4nc5c(-c6ccccn6)cncc5[nH]4)c3n2)c1` [Compound 159, N-(5-(3-(7-(Pyridin-2-yl)-3H-imidazo[4,5-c]pyridin-2-yl)-1H-pyrazolo[4,3-b]pyridin-5-yl)pyridin-3-yl)pentanamide], the inhibition at 10 µM was determined as 1% in test [1], 9% with SW480 colon cancer cells and 28.2% in the test with IL-6 in THP-1 cells. The EC50 (in test [1]; in the test on SW480 colon cancer cells; in the test with IL-6 in THP-1 cells) was above 10 µM in each case.

Turning to `CCC(=O)Nc1cncc(-c2ccc3[nH]nc(-c4nc5c(N6CCCCC6)cncc5[nH]4)c3n2)c1` [Compound 169, N-(5-(3-(7-(Piperidin-1-yl)-3H-imidazo[4,5-c]pyridin-2-yl)-1H-pyrazolo[4,3-b]pyridin-5-yl)pyridin-3-yl)propionamide], the inhibition at 10 µM in test [1] is 2.3%; with SW480 colon cancer cells, 2.2%; with IL-6 in THP-1 cells, 25.6%. Moreover, the half-maximal effective concentration (EC50) (in test [1]; with SW480 colon cancer cells; in the test with IL-6 in THP-1 cells) was above 10 µM throughout.

Consider `CN(C)Cc1cncc(-c2ccc3[nH]nc(-c4nc5c(N6CCCCC6)cncc5[nH]4)c3n2)c1` [Compound 181, N,N-Dimethyl-1-(5-(3-(7-(piperidin-1-yl)-3H-imidazo[4,5-c]pyridin-2-yl)-1H-pyrazolo[4,3-b]pyridin-5-yl)pyridin-3-yl)methanamine], for which the inhibition at 10 µM in test [1] came to 33.1%. Moreover, the EC50 in test [1] is above 10 µM; in the test on SW480 colon cancer cells it was 7.75 µM; in the test with IL-6 in THP-1 cells, 6.01 µM.

For `Cc1cn(-c2cncc3[nH]c(-c4n[nH]c5ccc(-c6cncc(NC(=O)CC(C)C)c6)nc45)nc23)cn1` [Compound 198, 3-Methyl-N-(5-(3-(7-(4-methyl-1H-imidazol-1-yl)-3H-imidazo[4,5-c]pyridin-2-yl)-1H-pyrazolo[4,3-b]pyridin-5-yl)pyridin-3-yl)butanamide], the inhibition at 10 µM is 1.8% in test [1], 4.2% in the test on SW480 colon cancer cells and 14.5% with IL-6 in THP-1 cells. For the same compound, the EC50 (in test [1]; with SW480 colon cancer cells; with IL-6 in THP-1 cells) was above 10 µM each time.

`Cc1cn(-c2cncc3[nH]c(-c4n[nH]c5ccc(-c6cncc(NC(=O)C(C)(C)C)c6)nc45)nc23)cn1` [Compound 204, N-(5-(3-(7-(4-methyl-1H-imidazol-1-yl)-3H-imidazo[4,5-c]pyridin-2-yl)-1H-pyrazolo[4,3-b]pyridin-5-yl)pyridin-3-yl)pivalamide]: the inhibition at 10 µM in test [1] came to 0%; in the test with SW480 colon cancer cells, 4.7%; with IL-6 in THP-1 cells it was 24.5%. For the same compound, the EC50 (in test [1]; in the test on SW480 colon cancer cells; with IL-6 in THP-1 cells) was above 10 µM in each case.

As for `Cc1cn(-c2cncc3[nH]c(-c4n[nH]c5ccc(-c6cncc(CN7CCCC7)c6)nc45)nc23)cn1` [Compound 210, 3-(7-(4-Methyl-1H-imidazol-1-yl)-3H-imidazo[4,5-c]pyridin-2-yl)-5-(5-(pyrrolidin-1-ylmethyl)pyridin-3-yl)-1H-pyrazolo[4,3-b]pyridine], the inhibition at 10 µM in test [1] turned out to be 3.5%; in the test on SW480 colon cancer cells it was 4%; with IL-6 in THP-1 cells, 13%. The EC50 (in test [1]; with SW480 colon cancer cells; with IL-6 in THP-1 cells) was above 10 µM each time.

Regarding `Cc1cn(-c2cncc3[nH]c(-c4n[nH]c5ccc(-c6cncc(NC(=O)C7CCC7)c6)nc45)nc23)cn1` [Compound 217, N-(5-(3-(7-(4-Methyl-1H-imidazol-1-yl)-3H-imidazo[4,5-c]pyridin-2-yl)-1H-pyrazolo[4,3-b]pyridin-5-yl)pyridin-3-yl)cyclobutanecarboxamide], the inhibition at 10 µM in test [1] was determined as 6.7%; in the test on SW480 colon cancer cells it was 0%; in the test with IL-6 in THP-1 cells, 36.5%. For the same compound, the half-maximal effective concentration (EC50) (in test [1]; in the test with SW480 colon cancer cells; with IL-6 in THP-1 cells) was above 10 µM in each case.

For the compound `CN1CCN(c2cncc3[nH]c(-c4n[nH]c5ccc(-c6cncc(N)c6)nc45)nc23)CC1` [Compound 227, 5-(3-(7-(4-Methylpiperazin-1-yl)-3H-imidazo[4,5-c]pyridin-2-yl)-1H-pyrazolo[4,3-b]pyridin-5-yl)pyridin-3-amine], the inhibition at 10 µM in test [1] is 16.3%; with SW480 colon cancer cells, 0%; with IL-6 in THP-1 cells it was 38%. The EC50 (in test [1]; in the test on SW480 colon cancer cells; in the test with IL-6 in THP-1 cells) was above 10 µM in each case.

On to `CC(C)C(=O)Nc1cncc(-c2ccc3[nH]nc(-c4nc5c(N6CCN(C)CC6)cncc5[nH]4)c3n2)c1` [Compound 233, N-(5-(3-(7-(4-Methylpiperazin-1-yl)-3H-imidazo[4,5-c]pyridin-2-yl)-1H-pyrazolo[4,3-b]pyridin-5-yl)pyridin-3-yl)isobutyramide], for which the inhibition at 10 µM amounted to 6.2% in test [1], 1% with SW480 colon cancer cells and 36.7% in the test on IL-6 in THP-1 cells. Further, the EC50 (in test [1]; in the test on SW480 colon cancer cells; in the test with IL-6 in THP-1 cells) was above 10 µM throughout.
